Data: the supplement of paper PMC8960247
Where a name gives a salt, the structure may show the parent alone. ± gives the standard error.

Legend:
621-102 (TSC2-deficient) = test: relative viability vs DMSO; higher = less cytotoxic; conditions: serum: 10% FBS, 72 h
621-103 (TSC2-rescued) = test: as above; conditions: serum: 10% FBS, 72 h
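Also: immortalized renal angiomyolipoma cells stably carrying empty vector or TSC2, dosed in 384-well plates in DMEM, viability normalized to vehicle-treated wells within each plate.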

Row | SMILES | relative viability (621-102 (TSC2-deficient); 0.0001 µM) | relative viability (621-102 (TSC2-deficient); 0.001 µM) | relative viability (621-102 (TSC2-deficient); 0.01 µM) | relative viability (621-102 (TSC2-deficient); 0.1 µM) | relative viability (621-102 (TSC2-deficient); 1 µM) | relative viability (621-102 (TSC2-deficient); 10 µM) | relative viability (621-103 (TSC2-rescued); 0.0001 µM) | relative viability (621-103 (TSC2-rescued); 0.001 µM) | relative viability (621-103 (TSC2-rescued); 0.01 µM) | relative viability (621-103 (TSC2-rescued); 0.1 µM) | relative viability (621-103 (TSC2-rescued); 1 µM) | relative viability (621-103 (TSC2-rescued); 10 µM)
1 | CCS(=O)(=O)Nc1ccc2c(c1)/C(=C(/Nc1ccc(CN3CCCCC3)cc1)c1ccccc1)C(=O)N2 [Hesperadin] | 105 ± 6.1% | 95.5 ± 3.5% | 77.4 ± 2.1% | 85.2 ± 1.8% | 59.2 ± 1.9% | 2.25 ± 0.32% | 100 ± 3.2% | 93.1 ± 1.2% | 97.46 ± 0.18% | 85.6 ± 0.14% | 42.75 ± 0.27% | 3.8 ± 0.2%
2 | Cc1[nH]c2ccccc2c1CCNCc1ccc(/C=C/C(=O)NO)cc1 [LBH-589 (Panobinostat)] | 96.4 ± 2.3% | 86.7 ± 1.3% | 69.1 ± 3.1% | 41.28 ± 0.39% | 25.4 ± 1% | 11.9 ± 0.59% | 97.6 ± 1.1% | 85.6 ± 1.8% | 52.19 ± 0.31% | 4.57 ± 0.076% | 1.66 ± 0.2% | 1.1 ± 0.019%
3 | COC(=O)N1CCN(Cc2cccc(NC(=O)Nc3ccc(C)nc3)c2F)CC1 | 93.8 ± 5.1% | 94.7 ± 5.8% | 97.5 ± 0.16% | 96.33 ± 0.19% | 85.15 ± 0.1% | 95.3 ± 1.4% | 103 ± 5.3% | 111 ± 1.7% | 110 ± 1.2% | 101 ± 2.6% | 108 ± 2.7% | 104 ± 2.6%
4 | Oc1ccc(-c2nc(-c3ccc(F)cc3)c(-c3ccncc3)[nH]2)cc1 | 104 ± 3.7% | 106.7 ± 0.78% | 104 ± 3.6% | 104.8 ± 0.31% | 103.8 ± 0.12% | 105 ± 2.4% | 99.5 ± 0.91% | 99.83 ± 0.79% | 99.49 ± 0.82% | 97.7 ± 1.4% | 98.4 ± 1.1% | 98.8 ± 1.3%
5 | COc1cccc(Nc2c(C(N)=O)cnc3c(C)cc(S(=O)(=O)c4cccc(C(=O)N(C)C)c4)cc23)c1 | 105 ± 5% | 102 ± 2.6% | 97.2 ± 5.1% | 104 ± 2.7% | 97.1 ± 0.98% | 95.9 ± 2% | 104 ± 3.4% | 103.1 ± 0.49% | 102 ± 3.5% | 103.2 ± 0.47% | 95.9 ± 3.8% | 93.3 ± 3.2%
6 | NC(=O)c1cccc2[nH]c(-c3ccc(C4CCCN4)cc3F)nc12 (stereo not given) | 98.7 ± 1.1% | 103.2 ± 0.25% | 104 ± 4.6% | 99.4 ± 3.5% | 102 ± 4.6% | 93.99 ± 0.45% | 96.5 ± 3.4% | 98.4 ± 1.8% | 102 ± 2.6% | 98.4 ± 4.6% | 103 ± 2.3% | 94 ± 1.4%
7 | Cc1[nH]c(/C=C2\C(=O)Nc3ccc(S(=O)(=O)N(C)c4cccc(Cl)c4)cc32)c(C)c1C(=O)N1CCN(C)CC1 | 98.4 ± 1.2% | 101 ± 2.5% | 101 ± 1.8% | 91.6 ± 1.4% | 100 ± 2.6% | 87.2 ± 1.5% | 97.3 ± 1.6% | 97.86 ± 0.64% | 98.4 ± 2% | 99.52 ± 0.97% | 101.8 ± 0.38% | 91.5 ± 3.8%
8 | CN1C(C(=O)Nc2ccccn2)=C(O)c2ccccc2S1(=O)=O [Piroxicam] | 98.4 ± 3.2% | 105 ± 8.5% | 111.3 ± 0.51% | 109 ± 4.4% | 103 ± 1.4% | 104 ± 9.8% | 110 ± 3% | 125 ± 2.3% | 126 ± 3.5% | 119.6 ± 0.1% | 112 ± 5% | 116.42 ± 0.082%
9 | CNC(=O)c1cc(COc2nnc(Nc3ccc(Cl)cc3)c3ccoc23)ccn1 [Telatinib (BAY57-9352)] | 94.64 ± 0.47% | 95.1 ± 4.9% | 83.7 ± 2.7% | 94.8 ± 1.5% | 84.3 ± 1.3% | 48.4 ± 3.9% | 114 ± 2.4% | 103.1 ± 0.34% | 100 ± 2.4% | 108 ± 2% | 104 ± 1.8% | 55.8 ± 4.5%
10 | COc1cccc2cc(-c3nc([C@H]4CC[C@H](C(=O)O)CC4)n4ncnc(N)c34)[nH]c12 [OSI-027] | 79.6 ± 8.2% | 88.5 ± 5.6% | 91.5 ± 7% | 90 ± 1.8% | 77.9 ± 2.4% | 25.2 ± 0.58% | 105 ± 2.6% | 101.3 ± 0.67% | 100.8 ± 0.85% | 94.6 ± 4.2% | 81.7 ± 4.1% | 32.3 ± 0.85%
11 | Cc1nc(-c2ccc(OCC(C)C)c(C#N)c2)sc1C(=O)O [Febuxostat] | 104 ± 2.3% | 104 ± 2.4% | 102.5 ± 0.48% | 105 ± 5.9% | 100.8 ± 0.75% | 99.9 ± 2.2% | 104 ± 2.5% | 100.5 ± 0.98% | 101 ± 2.4% | 102 ± 4% | 98.3 ± 0.27% | 101.3 ± 0.28%
12 | O=C1NC(=O)/C(=C/c2ccc3c(c2)OC(F)(F)O3)S1 | 104 ± 2.5% | 97.7 ± 4.8% | 102 ± 1.9% | 104.3 ± 0.58% | 100.2 ± 0.23% | 102.4 ± 0.35% | 98.2 ± 7.7% | 91.4 ± 7.6% | 90.7 ± 1.1% | 95.5 ± 2.7% | 98.1 ± 6.7% | 88.49 ± 0.37%
13 | CCCCCCCCCCCCCCCC(=O)OC[C@H](O)[C@H]1OC(=O)C(O)=C1O [L-Ascorbyl 6-palmitate] | 122 ± 5.9% | 111 ± 2.5% | 107 ± 3.4% | 107 ± 1.8% | 106.5 ± 0.81% | 111 ± 2.4% | 99.8 ± 2.5% | 105.8 ± 0.61% | 96.5 ± 3.2% | 100 ± 2.4% | 97.4 ± 2.1% | 94.9 ± 5%
14 | CCN(CCO)CCCOc1ccc2c(Nc3cc(CC(=O)Nc4cccc(F)c4)[nH]n3)ncnc2c1 [AZD1152-HQPA (Barasertib)] | 114 ± 6.7% | 111 ± 1.4% | 107 ± 2% | 79.4 ± 1.5% | 68.2 ± 0.79% | 73 ± 1.6% | 97.225 ± 0.04% | 98.1 ± 0.35% | 96.9 ± 0.98% | 91.9 ± 3.1% | 84.56 ± 0.56% | 85.5 ± 2.6%
15 | COc1c(C)cnc(Cn2cnc3c(Cl)nc(N)nc32)c1C [BIIB021] | 107 ± 1.3% | 120 ± 2.2% | 117 ± 4.1% | 79 ± 2.7% | 33.3 ± 1.2% | 21.1 ± 0.83% | 108.8 ± 0.79% | 103 ± 1.5% | 104.1 ± 0.83% | 75 ± 2.9% | 5.92 ± 0.87% | 4.56 ± 0.052%
16 | CN(c1ncccc1CNc1nc(Nc2ccc3c(c2)CC(=O)N3)ncc1C(F)(F)F)S(C)(=O)=O | 99.84 ± 0.61% | 105 ± 2.5% | 97.1 ± 2.1% | 101 ± 1.2% | 94.8 ± 5.8% | 47.7 ± 8.3% | 106 ± 4.2% | 94.4 ± 5.1% | 102 ± 0.37% | 100.6 ± 0.65% | 97.5 ± 6.1% | 38.2 ± 5.9%
17 | O=c1n(CCCN2CCN(c3cccc(Cl)c3)CC2)nc2ccccn12 [Trazodone HCl] | 103 ± 1.2% | 103 ± 1.8% | 105 ± 2.1% | 99.8 ± 4.6% | 107 ± 1.8% | 103 ± 4.7% | 77.1 ± 6.5% | 84.3 ± 2.8% | 84.8 ± 4% | 86.6 ± 3.6% | 68.2 ± 3.2% | 63.7 ± 7.5%
18 | NC(CO)C(=O)NNCc1ccc(O)c(O)c1O (stereo not given) [Benserazide HCl] | 98.1 ± 5.3% | 93.8 ± 2.6% | 103 ± 3.5% | 107 ± 1.3% | 106 ± 2.3% | 101 ± 1.4% | 108.8 ± 0.38% | 104 ± 2.7% | 110 ± 2.1% | 109.5 ± 0.88% | 114 ± 2.6% | 105 ± 3.1%
19 | CC(=O)NC[C@H]1CN(c2ccc(N3CCOCC3)c(F)c2)C(=O)O1 [Linezolid] | 99.5 ± 7.5% | 108 ± 2.5% | 102.8 ± 0.25% | 105 ± 2.2% | 102 ± 4.4% | 101.1 ± 0.19% | 105 ± 5.3% | 110 ± 4.4% | 98.2 ± 2.4% | 101 ± 0.73% | 103 ± 1.3% | 104 ± 3%
20 | Cn1c(N2CCCCS2(=O)=O)nc(C(=O)NCc2ccc(F)cc2)c(O)c1=O | 104 ± 2.9% | 106 ± 1.5% | 106 ± 1.5% | 102 ± 1.9% | 108.8 ± 0.34% | 99.97 ± 0.61% | 99.8 ± 2.4% | 105.9 ± 0.6% | 101 ± 2.4% | 101 ± 2.1% | 100.8 ± 0.82% | 100 ± 1.4%
